The experiment concerns rabbit platelets. In words: In vitro platelet aggregation (turbidimetry, platelet-rich plasma). Format: cell-based. The note with it: for activity on this in vitro platelet aggregation test: result in words, concentration and aggregating agent not stated. The protocol: The platelet aggregation is measured by the turbidimetry method inspired by Born, by detecting the optical transmission through a platelet-rich plasma (PRP) to which and aggregating agent has been added. When the platelets aggregate, the plasma becomes clear and the optical transmission increases. Blood is taken (3 tubes per rabbit) by cardiac puncture from a rabbit into tubes containing sodium citrate. To obtain the platelet-rich plasma (PRP), the tubes are centrifuged at 160 g for 10 minutes. The supernatants are collected (PRP) and the pellet is re-centrifuged at 2000 g for 15 minutes to obtain the platelet-poor plasma (PPP). By dilution with the PPP, the PRP is adjusted to a concentration of 300,000 platelets per mm^3±10%. The counting is carried out using a Coulter ZM counter. Tubes containing 320 μl of PRP are incubated at +37° C. for 30 minutes in pre-incubation wells. The aggregometer is calibrated with the PPP for an optical transmission of 100% corresponding to a complete aggregation, and with the PRP obtained from the same rabbit for an optical transmission of 0% corresponding to the absence of aggregation. The test product P is added in a volume of 40 μl. After incubation for 2 minutes, the aggregating agent (10 μM ADP, 0.2 mM sodium arachidonate or collagen […]) is added in a volume of 40 μl. The aggregation begins immediately and can be seen on the printer. On the plot obtained, the height of the aggregation curve is measured in cm from the baseline before addition of the aggregating agent, and then converted into mVolts (=1/OD) using the formula 10 mV=2.5 cm.

Consider 5 compounds from patent US20080139489A1, “USE OF KETOLIDES FOR PREVENTING ARTERIAL THROMBOTIC COMPLICATIONS RELATED TO ATHEROSCLEROSIS” (Aventis Pharma S.A., priority 1997, published 2008).

Consider `CC[C@H]1OC(=O)[C@H](C)C(=O)[C@H](C)[C@@H](O[C@@H]2O[C@H](C)C[C@H](N(C)C)[C@H]2O)[C@](C)(OC)C[C@@H](C)C(=O)[C@H](C)[C@H]2N(COCCn3cnc(-c4cccnc4)c3)C(=O)O[C@]12C` [Product P], for which the “% of inhibition of the aggregation induced by arachidonic acid” value runs as follows: (product concentration 10^−4 M, rabbit platelets, arachidonic acid 0.2 mM) 90%; (product concentration 10^−5 M, rabbit platelets, arachidonic acid 0.2 mM) 73%; (product concentration 10^−6 M, rabbit platelets, arachidonic acid 0.2 mM) 42%; (product concentration 10^−7 M, rabbit platelets, arachidonic acid 0.2 mM) 7%.

Broadly, the inhibition is the change of the read-out against control, counted positive when it falls. For `CC(=O)Oc1ccccc1C(=O)O` [Aspirin, reference compound], the inhibition at 50 µM (Oryctolagus cuniculus, Platelet, product concentration 5 × 10^−5 M, rabbit platelets, arachidonic acid 0.2 mM, read-out: % of inhibition of the aggregation induced by arachidonic acid) was found to be 85%. Moreover, where the note is “Oryctolagus cuniculus, Platelet, product concentration 10^−4 M, rabbit platelets, arachidonic acid 0.2 mM, read-out: % of inhibition of the aggregation induced by arachidonic acid”, the inhibition at 100 µM was determined as 100%. Besides, the inhibition at 10 µM (Oryctolagus cuniculus, Platelet, product concentration 10^−5 M, rabbit platelets, arachidonic acid 0.2 mM, read-out: % of inhibition of the aggregation induced by arachidonic acid) was determined as 13%. In addition, the inhibition at 1 µM (Oryctolagus cuniculus, Platelet, product concentration 10^−6 M, rabbit platelets, arachidonic acid 0.2 mM, read-out: % of inhibition of the aggregation induced by arachidonic acid) was 8%.

In the case of `CCC1OC(=O)C(C)C(=O)C(C)C(OC2OC(C)CC(N(C)C)C2O)C(C)(OC)CC(C)C(=O)C(C)C2N(CCCCn3cnc(-c4cccnc4)n3)C(=O)OC12C` (centres unmarked) [Product P1], the “activity on this in vitro platelet aggregation test” value (“activity on this” below) is reported as “good activity”.

In the case of `CCC1OC(=O)C(C)C(=O)C(C)C(OC2OC(C)CC(N(C)C)C2O)C(C)(OC)CC(C)C(=O)C(C)C2N(CCCCn3cnc(-c4cccnc4)c3)C(=O)OC12C` [Product P3, 11,12-dideoxy-3-de((2,6-dideoxy-3-C-methyl-3-O-methyl-alpha-L-ribohexopyranosyl)oxy)-6-O-methyl-3-oxo-12,11-(oxycarbonyl((4-(4-(3-pyridyl)-1H-imidazol-1-yl)butyl)imino))erythromycin], the “activity on this” value is given as “good activity”.

`CCC1OC(=O)C(C)(F)C(=O)C(C)C(OC2OC(C)CC(N(C)C)C2O)C(C)(OC)CC(C)C(=O)C(C)C2N(CCCCn3cnc(-c4cccnc4)c3)C(=O)OC12C` [Product P2, 11,12-dideoxy-3-de((2,6-dideoxy-3-C-methyl-3-O-methyl-alpha-L-ribohexopyranosyl)oxy)-2-fluoro-6-O-methyl-3-oxo-12,11-(oxycarbonyl((4-(4-(3-pyridyl)-1H-imidazol-1-yl)butyl)-imino))erythromycin]: the “activity on this” value is reported as “good activity”.
